The target of series [1] is T1, ER (Homo sapiens (Human), UniProt P03372). The series is described as follows: MCF-7 ER degradation assay (high content imaging). The class given is cell-based. Conditions: MCF-7 cells, 1 nM compound, DMSO control as baseline; for MCF7 ER Degradation at 4 hr (%): 4 hours treatment; for MCF7 ER Degradation at 24 hr (%): 24 hours treatment.
Method: The level of ER degradation by SERD described in this patent was analyzed by cell based high content imaging method. […] Then, 1 μL of compound solution (in DMSO) was added to the cells to make a final concentration of 1 nM per each well of treated cells. DMSO at the same final concentration (%) per each well was used to serve as negative control on each plate. After 4 hours or 24 hours of treatment at 37° C. with 5% CO2, the cells were fixed and permeabilized. Media from each well was aspirated and cells were gently washed with 1×PBS for 5 minutes and the wash procedure was repeated 3 times. Cells was then fixed with 4% formaldehyde freshly made in 1×PBS at room temperature for 20 minutes, followed by gentle washing with 1×PBS, 3 times for 5 minute each. The assay plate was incubated with 200 μl of 1×PBS containing 0.2% Triton-X100 for 5 minutes at room temperature, cells were then washed again with 1×PBS 3 times for 5 minutes each. After this, cells were incubated with the blocking buffer (1×PBS with 5% BSA) at room temperature for 1 hour. For immunostaining, blocking buffer was removed and primary anti-ER antibody (ER1D5, Santa Cruz) diluted in blocking buffer (1:400) was added to each well and cells were incubated overnight at 4° C. The next day, cells were washed with 1×PBS for 3 times with 5 minute each. […] Cells were washed with 1×PBS for 3 times with 5 minute each time. Cells were incubated with DAPI (Beyotime; 1 μg/ml) for 10 minutes and washed with 1×PBS for 3 times with 5 minute each time. […] SERD induced ER degradation in the MCF-7 cells were measured using DMSO negative control as the baseline.
Series [2] can be described thus: Mouse PK study (iv 3 mpk, po 30 mpk). Format: in vivo, male CD1 mice. Conditions: male, CD1, whole blood; for clearance: 3 mg/kg, IV 3 mpk, read-out: Mouse IV 3 mpk CL (converted); for AUC(0-t) / half-life: 30 mg/kg, PO 30 mpk; for AUC(0-t): read-out: Mouse PO 30 mpk AUC last; for half-life: read-out: Mouse PO 30 mpk T½ (converted). How it is done: Mouse PK study (iv 3 mpk, and po 30 mpk) was conducted using male CD1 mice (25-33 g) obtained from SLAC Laboratory Animal Co., LTD of Shanghai). Compound is prepared with the following formulation: 5% DMSO, 5% Solutol HS 15 and 9% HPBCD in water. For intravenous (iv) dose at 3 mpk and oral (po) dose at 30 mpk, the compound is formulated at the concentration […] and […], respectively. Compound formulation is freshly made prior to dosing in the morning. Oral dosing is via the use of oral gavage at 10 mL/kg, while iv dosing is via tail vein at 5 mL/kg. Three mice are used for each dosing route per compound per dose. Serial blood sample (30 uL whole blood at each time point) is collected into the K2EDTA tubes via facial vein at the following time points: 5 min (for iv route only), 30 min, 1, 2, 4, 6, 8, 12 and 24 hours. For each blood sample collected, immediately transfer 20 uL blood sample and mix well with 60 uL water in a 96-well plate (whole blood:water=1:3 v/v). Diluted blood samples are stored at −80C freezer until analysis. For analysis, an aliquot of 20 μL sample was added with 200 μL IS (Glipizide, 100 ng/mL) in ACN. The mixture was vortexed for 2 min and centrifuged at 5800 rpm for 10 min. An aliquot of 2 μL supernatant was injected for LC-MS/MS analysis. Compound at 2.0-3000 ng/mL in CD1 mouse diluted blood is used for calibration curve. Pharmacokinetic data are obtained and described in the table below: […]

Series [3] is described as follows: Human hepatocyte clearance study. Format: in vitro ADME. To be noted: pooled cryopreserved human hepatocytes (suspension); for hepatocyte CLint at 1 µM / half-life at 1 µM: human; for hepatocyte CLint at 1 µM: read-out: Human In vitro Clint (μL/min/10^6 cells); for half-life at 1 µM: read-out: Human In vitro T1/2; for CLint scaled at 1 µM: human hepatocytes, scaling factor 2544.3, read-out: Human Scale-up Clint. The procedure: (§1) The in vitro hepatocyte clearance of compound described here was studied using pooled human hepatocytes purchased from BioreclamationlVT (Westbury, NY, Cat #X008001, Lot #TQJ). Assay was conducted according to manufacture's instruction. Briefly, mM tock solutions of test compound and positive control (Verapamil) were prepared in 100% DMSO. Thawing media (50 mL) used in the study consists of: 31 mL Williams E medium (GIBCO Cat #12551-032); 15 mL isotonic percoll (GE Healthcare Cat #17-0891-09); 500 uL 100×GlutaMax (GIBCO Cat #35050); 750 uL HEPES (GIBCO Cat #15630-080); 2.5 mL FBS (Corning Cat #35-076-CVR); 50 uL human insulin (GIBCO Cat #12585-014) and 5 uL dexamethasone (NICPBP). Incubation media is made of Williams E medium supplemented with 1×GlutaMax. Thawing medium and supplement incubation medium (serum-free) were placed in a 37° C. water bath for at least 15 minutes prior to use. Compound stock solutions were diluted to 100 μM by combining 198 μt of 50% acetonitrile/50% water and 2 μL of 10 mM stock solution. Verapamil was use as positive control in the assay. Vials of cryopreserved hepatocytes were removed from storage and thawed in a 37° C. water bath with gentle shaking. Contents of the vial were poured into the 50 mL thawing medium conical tube. Vials were centrifuged at 100 g for 10 minutes at room temperature. Thawing medium was aspirated and hepatocytes were re-suspended with serum-free incubation medium to yield ˜1.5×10^6 cells/mL. Hepatocyte viability and density were counted using a Trypan Blue exclusion, and then cells were diluted with serum-free incubation medium to a working cell density of 0.5×10^6 viable cells/mL. Then, a portion of the hepatocytes at 0.5×10^6 viable cells/mL was boiled for 5 min prior to adding to the plate as negative control to eliminate the enzymatic activity so that little or no substrate turnover should be observed. The boiled hepatocytes were used to prepare negative samples. Aliquots of 198 μL hepatocytes were dispensed into each well of a 96-well non-coated plate. The plate was placed in the incubator on an orbital shaker at 500 rpm for approximately 10 minutes. Aliquots of 2 μL of the 100 μM test compound or positive control were added into respective wells of the non-coated 96-well plate to start the reaction. This assay was performed in duplicate. The plate was incubated in the incubator on an orbital shaker at 500 rpm for the designed time points. Twenty-five microliter of contents were transferred and mixed with 6 volumes (150 μL) of cold acetonitrile with IS (200 nM imipramine, 200 nM labetalol and 200 nM diclofenac) to terminate the reaction at time points of 0, 15, 30, 60, 90 and 120 minutes. Samples were centrifuged at 3,220 g for 25 minutes and aliquots of 150 μL of the supernatants was used for LC-MS/MS analysis. For data analysis, all calculations were carried out using Microsoft Excel. Peak areas were determined from extracted ion chromatograms. The in vitro half-life (t1/2) of parent compound was determined by regression analysis of the percent parent disappearance vs. time curve. The in vitro half-life (in vitro t1/2) was determined from the slope value: in vitro t1/2=0.693/k. […] Scaling factors for in vivo intrinsic clearance prediction using human hepatocytes are listed as: liver weight (g liver/kg body weight): 25.7; hepatocyte concentration (10^6 cells/g liver): 99; scaling factor: 2544.3.

A further series has as its system pooled human hepatocytes. The series is described as follows: Human hepatocyte clearance study. Format: in vitro ADME. Conditions: for Human Hepatocyte Remaining Percentage @ 120 min (%): human hepatocytes 0.5x10^6 viable cells/mL. The procedure:
as §1

Another series concerns xMCF-7 xenograft tumor. The series is described as follows: Human breast cancer xMCF-7 xenograft efficacy study in mouse. The class given is in vivo. To be noted: for tumor growth inhibition and tumor regression (FIG. 2): 2 mg/kg orally, once daily for 28 days, start at tumor ~250 mm^3. The procedure: To investigate the in vivo efficacy of SERD compounds described in this application, female nude mice were inoculated with human ER+ breast cancer cells xMCF-7. xMCF-7 cells are derived from MCF-7 (ATCC) tumor grown in the nude mice. Briefly, female balb/c mice (age 6-7 wk) were first inoculated subcutaneously on the back with estrogen pellet (0.5 mg, 60-day release from Innovative Research of America, Cat #SE-121). Two days later, each mouse was inoculated with 5 million xMCF-7 cells, prepared as 0.2 ml cell suspension in 1:1 mix of Eagle's MEM to cell culture media and Matrigel (Corning Cat #354234) for each injection. After tumor size reached ˜235 mm^3, mice with xMCF-7 xenograft tumor are randomized to 10 mice per group and started receiving drug treatment.
In another xMCF-7 study, treatment initiated when tumor reached ˜250 mm^3. Each drug was given at 2 mg/kg orally, once daily for 28 days.
On the technique in general: A xenograft is tissue or cells of one species grown in another, often human tumour cells in immunodeficient mice.

For series [4], the system named is breast cancer cell line MCF-7. The series is described as follows: MCF-7 cell growth study (celltiter-glo luminescent viability assay).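 Note: viability read by luminescence after compound exposure, relative to DMSO vehicle-treated wells on the same plate.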 To be noted: MCF-7 cells, 6 days incubation, read-out: IC50 (nM), cell growth inhibition. Format: cell-based, human. (In general: Cellular ATP, detected with luciferase, serves as a proxy for viable cell number.)
Method: Compound activity was analyzed using celltiter-glo luminescent viability assay (Promega #G7572) in breast cancer cell line MCF-7. Cells grown in log phase are trypsinized and seeded into a 96-well cell culture plate at a density of 2×10^3 per well and incubated overnight at 37° C. with 5% CO2 in humidified culture chamber. The next day, compounds were prepared in 100% DMSO and were serially diluted and added into cells in the following final concentrations: 316, 100, 31.6, 10, 3.16, 1, 0.32, 0.1, 0.03, 0.01, 0.003 and 0.001 nM. As a control, same volume and concentration of DMSO vehicle control solution was added to the control wells in each plate. The cells were incubated with compounds at 37° C. culture chamber for 6 days. Promega's celltiter-glo kit was used to analyze the cell viability, according to manufacture's instruction. Briefly, fifty microliter of celltiter-glo reagent was added to each well, plate (covered with aluminum foil) was gently vibrated for 10 min to induce cell lysis at room temperature. Luminescence was measured using a SPECTRAmax i3 reader.
Series [5] has as its target T1, ER. Conditions: intramuscular injection monthly; cited from earlier work.

Structures are written as SMILES. Read-outs that look alike come from different tables or passages of the source.

T1 sequence (P03372 whole entry): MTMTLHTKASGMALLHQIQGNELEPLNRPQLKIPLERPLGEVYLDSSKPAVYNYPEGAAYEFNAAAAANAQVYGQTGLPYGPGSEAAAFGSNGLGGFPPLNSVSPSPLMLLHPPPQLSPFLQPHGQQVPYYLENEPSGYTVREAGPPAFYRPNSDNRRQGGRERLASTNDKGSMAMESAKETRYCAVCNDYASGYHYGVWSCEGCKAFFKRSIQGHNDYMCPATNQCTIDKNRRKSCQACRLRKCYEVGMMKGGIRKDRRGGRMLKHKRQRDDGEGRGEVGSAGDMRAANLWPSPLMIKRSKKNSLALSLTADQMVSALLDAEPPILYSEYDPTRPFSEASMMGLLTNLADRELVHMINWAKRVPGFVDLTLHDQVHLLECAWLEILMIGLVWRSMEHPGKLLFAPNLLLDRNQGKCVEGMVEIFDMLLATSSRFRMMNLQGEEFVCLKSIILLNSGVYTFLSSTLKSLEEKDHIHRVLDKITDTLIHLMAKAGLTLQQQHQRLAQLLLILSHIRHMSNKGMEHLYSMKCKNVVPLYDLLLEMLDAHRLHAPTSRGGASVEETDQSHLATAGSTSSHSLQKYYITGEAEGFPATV

Regarding `C[C@@H]1Cc2c([nH]c3ccccc23)[C@@H](c2c(F)cc(/C=C/C(=O)O)cc2F)N1CC(C)(C)F` [AZD9496, reference compound], on ER [1], the “MCF7 ER Degradation at 4 hr (%)” value was 17% and the “MCF7 ER Degradation at 24 hr (%)” value was 23%. Also, in series [2], the clearance is 19 mL/min/kg, the AUC(0-t) came to 85 µM·h and the half-life is 3.5 h. Besides, in series [3], the hepatocyte CLint at 1 µM is 9 µL/min/1e6 cells, the half-life at 1 µM worked out at 2.55 h and the CLint scaled at 1 µM is 23 mL/min/kg. Also, in the series with pooled human hepatocytes, the “Human Hepatocyte Remaining Percentage @ 120 min (%)” value is reported as 58%.

Regarding `C[C@@H]1Cc2c([nH]c3ccccc23)[C@@H](c2c(F)cc(OCCN3CC(CF)C3)cc2Cl)N1CC(C)(F)F` [Compound 12], the “tumor growth inhibition and tumor regression (FIG. 2)” value in the series with xMCF-7 xenograft tumor is listed as “more efficacious than AZD9496”. For the same molecule, in series [4] (Homo sapiens, MCF7, 144 h), the IC50 was 0.26 nM.

As for `CC/C(=C(/c1ccc(/C=C/C(=O)O)cc1)c1ccc2[nH]ncc2c1)c1ccc(F)cc1Cl` [GDC-0810, reference compound], in series [2], the clearance was 15.3 mL/min/kg, the AUC(0-t) turned out to be 80 µM·h and the half-life is 2.9 h. Also, in series [3], the hepatocyte CLint at 1 µM worked out at 24.6 µL/min/1e6 cells, the half-life at 1 µM was 0.933 h and the CLint scaled at 1 µM is 63 mL/min/kg. Moreover, the “Human Hepatocyte Remaining Percentage @ 120 min (%)” value in the series on pooled human hepatocytes is listed as 24%.

Turning to `C[C@@H]1Cc2c([nH]c3ccccc23)[C@@H](c2c(Cl)cc(/C=C/C(=O)O)cc2Cl)N1CC(C)(F)F` [Compound 25], in series [2], the clearance is 1.33 mL/min/kg, the AUC(0-t) is 658 µM·h and the half-life was 62 h. Also, in the series on xMCF-7 xenograft tumor, the “tumor growth inhibition and tumor regression (FIG. 2)” value was “more efficacious than AZD9496”. For the same molecule, the “tumor growth inhibition (tumor volume change, FIG. 1)” value with xMCF-7 xenograft tumor (oral 5 mg/kg or 30 mg/kg once a day for 28 days, fulvestrant 250 mg/kg subcutaneously, start at tumor ~235 mm^3) was “more efficacious in vivo than fulvestrant, GDC-0810 and AZD9496”. The IC50 in series [4] (Homo sapiens, MCF7, 144 h) amounted to 0.8 nM.

`C[C@@H]1Cc2c([nH]c3ccccc23)[C@@H](c2c(F)cc(/C=C/C(=O)O)cc2Cl)N1CC(C)(C)F` [Compound 20]: on ER [1], the “MCF7 ER Degradation at 4 hr (%)” value is 25% and the “MCF7 ER Degradation at 24 hr (%)” value is 21%. Also, in series [4], the IC50 amounted to 0.3 nM. In addition, in the series on pooled human hepatocytes (human hepatocytes), the “Human In vitro Clint (μL/min/10^6 cells)” value came out at 5.6 μL/min/10^6 cells and the “Human In vitro T1/2” value came to 4.1 h. Besides, in the series on pooled human hepatocytes, the “Human Hepatocyte Remaining Percentage @ 120 min (%)” value worked out at 70%. Also, the “Human Scale-up Clint” value with pooled human hepatocytes (human hepatocytes, scaling factor 2544.3) stood at 14 mL/min/kg.

As to `CC1Cc2c([nH]c3ccc(F)cc23)C(c2c(F)cc(/C=C/C(=O)O)cc2F)N1CC(C)(C)F` (stereo not shown) [Compound 46A], on ER [1], the “MCF7 ER Degradation at 4 hr (%)” value came out at 25% and the “MCF7 ER Degradation at 24 hr (%)” value is reported as 20%.

Regarding `C[C@]12CC[C@@H]3c4ccc(O)cc4C[C@@H](CCCCCCCCC[S+]([O-])CCCC(F)(F)C(F)(F)F)[C@H]3[C@@H]1CC[C@@H]2O` (stereo partly shown) [Fulvestrant, reference compound], at ER [1], the “MCF7 ER Degradation at 4 hr (%)” value is listed as 29% and the “MCF7 ER Degradation at 24 hr (%)” value was 15%. Further, the “ER degradation in clinical samples” value on ER [5] is roughly 50%. In series [3], the hepatocyte CLint at 1 µM is 33 µL/min/1e6 cells, the half-life at 1 µM was 0.7 h and the CLint scaled at 1 µM came to 86 mL/min/kg. Also, the “Human Hepatocyte Remaining Percentage @ 120 min (%)” value in the series on pooled human hepatocytes is recorded as 12%.

One may read the IC50 as the concentration that inhibits the measured activity by half.

Source of the values: patent US20240043442A1, “SELECTIVE ESTROGEN RECEPTOR DEGRADERS AND USES THEREOF” (InventisBio LLC, priority 2016, published 2024).
